According to patent US8017656B2, “Organic sulfur compounds and use thereof” (Sumitomo Chemical Company, Limited, priority 2005, dated 2011):
Read-outs that look alike come from different tables or passages of the source.

Columns and labels:
Assay type in all cases: in vivo
Culex pipiens pallens = test: Test Example 4: mosquito larvae test in treated water; details: 24 h, read-out: rate of dead pests
Method: 0.7 ml of above test solution was added to 100 ml of ion exchanged water (active ingredient concentration: 3.5 ppm). Twenty last-instar larvae of Culex pipiens pallens were set free in the solution. After one day, the number of surviving and dead Culex pipiens pallens was examined and the rate of dead pests was calculated.

Musca domestica = test: Test Example 2: filter paper/sucrose bait test against housefly imagoes; details: read-out: rate of dead pests
Method: (§1) On the bottom of a polyethylene cup having a diameter of 5.5 cm, a filter paper having the same diameter was laid, and 0.7 ml of the above test solution was added dropwise on the filter paper, followed by putting 30 mg of sucrose on it uniformly as a bait. Ten female Musca domestica imagoes were set free in the polyethylene cup and covered it with a lid. After 24 hours, the number of surviving and dead Musca domestica was examined and the rate of dead pests was calculated.

Blattella germanica = test: Test Example 3: filter paper/sucrose bait test against German cockroach imagoes; details: Blattella germanica, 144 h, read-out: rate of dead pests
Method: as §1, with “Two male Blattella germanica” for “Ten female Musca domestica”, “6 days,” for “24 hours,”, “Blattella germanica” for “Musca domestica”

[1] = active ingredient concentration 3.5 ppm in water, twenty last-instar larvae, after one day
[2] = 500 ppm test solution, 0.7 ml on filter paper with 30 mg sucrose, ten female imagoes, after 24 hours
[3] = 500 ppm test solution, 0.7 ml on filter paper with 30 mg sucrose, two male imagoes, after 6 days

SMILES	pest or weed control at 3.5 ppm (Culex pipiens pallens; [1]) [%]	pest or weed control at 500 ppm (Musca domestica; [2]) [%]	pest or weed control at 500 ppm (Blattella germanica; [3]) [%]	pest or weed control at 3.5 ppm (Culex pipiens pallens) [%]	pest or weed control at 500 ppm (Musca domestica; 24 h) [%]	pest or weed control at 500 ppm (Blattella germanica) [%]
CC(C)NC(=O)C(C)(CCC(F)(F)C(F)(F)F)S(=O)(=O)CCC(F)(F)F (stereo not drawn) [(41)]	≥ 90	≥ 70	100			
CC(C#N)(CCCC(F)(F)F)S(=O)(=O)CCC(F)(F)F (stereo not drawn) [(45)]	≥ 90	≥ 70	100			
CCOC(=O)C(C)(CCC(F)(F)C(F)(F)F)S(=O)(=O)CCC(F)(F)F (stereo not drawn) [(46)]	≥ 90	≥ 70	100			
CC(CCC(F)(F)C(F)(F)F)(C(N)=S)S(=O)(=O)CCC(F)(F)F (stereo not drawn) [(49)]	≥ 90	≥ 70	100			
CC(C#N)(CCC(F)(F)C(F)(F)F)SCCC(F)(F)F (stereo not drawn) [(50)]	≥ 90	≥ 70	100			
COC(=O)C(C)(CCC(F)(F)C(F)(F)C(F)(F)F)S(=O)(=O)CCC(F)(F)C(F)(F)F (stereo not drawn) [(52)]				≥ 90	≥ 70	100
N#CC(CCC(F)(F)F)S(=O)(=O)CCC(F)(F)C(F)(F)F (stereo not drawn) [(53)]	≥ 90	≥ 70	100			
CC(CCC(F)(F)C(F)(F)C(F)(F)F)(C(N)=O)S(=O)(=O)CCC(F)(F)C(F)(F)F (stereo not drawn) [(56)]				≥ 90	≥ 70	100
CC(C#N)(CCC(F)(F)C(F)(F)F)[S+]([O-])CCC(F)(F)F (stereo not drawn) [(57)]	≥ 90	≥ 70	100			
COC(=O)C(Cl)(CCC(F)(F)C(F)(F)F)S(=O)(=O)CCC(F)(F)F (stereo not drawn) [(58)]	≥ 90	≥ 70	100			
NC(=O)C(Cl)(CCC(F)(F)C(F)(F)F)S(=O)(=O)CCC(F)(F)F (stereo not drawn) [(59)]	≥ 90	≥ 70	100			
NC(=O)C(CCC(F)(F)C(F)(F)F)S(=O)(=O)CCC(F)(F)C(F)(F)F (stereo not drawn) [(60)]	≥ 90	≥ 70	100			
CC(CCC(F)(F)C(F)(F)F)(C(N)=O)S(=O)(=O)CCC(F)(F)C(F)(F)F (stereo not drawn) [(61)]	≥ 90	≥ 70	100			
COC(=O)C(CCC(F)(F)C(F)(F)F)[S+]([O-])CCC(F)(F)F (stereo not drawn) [(63)]	≥ 90	≥ 70	100			
COC(=O)C(Br)(CCC(F)(F)C(F)(F)F)S(=O)(=O)CCC(F)(F)F (stereo not drawn) [(65)]	≥ 90	≥ 70	100			
NC(=O)C(F)(CCC(F)(F)C(F)(F)F)S(=O)(=O)CCC(F)(F)C(F)(F)C(F)(F)F (stereo not drawn) [(67)]				≥ 90	≥ 70	100
COC(=O)C(C)(CCC(F)(F)C(F)(F)F)SCCC(F)(F)F (stereo not drawn) [(68)]	≥ 90	≥ 70	100			
CNC(=O)C(F)(CCC(F)(F)C(F)(F)F)S(=O)(=O)CCC(F)(F)F (stereo not drawn) [(69)]	≥ 90	≥ 70	100			
CC(CCC(F)(F)C(F)(F)F)(SCCC(F)(F)F)C(N)=O (stereo not drawn) [(70)]	≥ 90	≥ 70	100			
COC(=O)C(C)(CCC(F)(F)C(F)(F)F)[S+]([O-])CCC(F)(F)F (stereo not drawn) [(71)]	≥ 90	≥ 70	100			
COC(=O)C(F)(CCC(F)(F)C(F)(F)F)S(=O)(=O)CCC(F)(F)C(F)(F)F (stereo not drawn) [(72)]	≥ 90	≥ 70	100			

SMILES	pest or weed control at 3.5 ppm (Culex pipiens pallens; [1]) [%]	pest or weed control at 500 ppm (Musca domestica; [2]) [%]	pest or weed control at 500 ppm (Blattella germanica; [3]) [%]	pest or weed control at 3.5 ppm (Culex pipiens pallens) [%]	pest or weed control at 500 ppm (Musca domestica; 24 h) [%]	pest or weed control at 500 ppm (Blattella germanica) [%]
NC(=O)C(F)(CCC(F)(F)C(F)(F)F)S(=O)(=O)CCC(F)(F)C(F)(F)F (stereo not drawn) [(73)]	≥ 90	≥ 70	100			
CN(C)C(=O)C(F)(CCC(F)(F)C(F)(F)F)S(=O)(=O)CCC(F)(F)F (stereo not drawn) [(74)]	≥ 90	≥ 70	100			
CNC(=O)C(Cl)(CCC(F)(F)C(F)(F)F)S(=O)(=O)CCC(F)(F)F (stereo not drawn) [(75)]	≥ 90	≥ 70	100			
COC(=O)C(Cl)(CCCC(F)(F)F)S(=O)(=O)CCC(F)(F)F (stereo not drawn) [(79)]	≥ 90	≥ 70	100			
NC(=O)C(Cl)(CCCC(F)(F)F)S(=O)(=O)CCC(F)(F)F (stereo not drawn) [(80)]	≥ 90	≥ 70	100			
NC(=O)C(Cl)(CCC(F)(F)F)S(=O)(=O)CCC(F)(F)F (stereo not drawn) [(81)]	≥ 90	≥ 70	100			
NC(=O)C(Cl)(CCC(F)(F)C(F)(F)C(F)(F)F)S(=O)(=O)CCC(F)(F)F (stereo not drawn) [(84)]				≥ 90	≥ 70	100
COC(=O)C(Cl)(CCC(F)(F)C(F)(F)C(F)(F)C(F)(F)F)S(=O)(=O)CCC(F)(F)F (stereo not drawn) [(86)]				≥ 90	≥ 70	100
NC(=O)C(Cl)(CCC(F)(F)C(F)(F)C(F)(F)C(F)(F)F)S(=O)(=O)CCC(F)(F)F (stereo not drawn) [(87)]				≥ 90	≥ 70	100
COC(=O)C(Cl)(CCC(F)(F)C(F)(F)F)S(=O)(=O)CCC(F)(F)C(F)(F)F (stereo not drawn) [(88)]	≥ 90	≥ 70	100			
NC(=O)C(Cl)(CCC(F)(F)C(F)(F)F)S(=O)(=O)CCC(F)(F)C(F)(F)F (stereo not drawn) [(89)]	≥ 90	≥ 70	100			
COC(=O)C(F)(CCC(F)(F)C(F)(F)C(F)(F)F)S(=O)(=O)CCC(F)(F)F (stereo not drawn) [(90)]				≥ 90	≥ 70	100
NC(=O)C(F)(CCC(F)(F)C(F)(F)C(F)(F)F)S(=O)(=O)CCC(F)(F)F (stereo not drawn) [(91)]				≥ 90	≥ 70	100
COC(=O)C(Cl)(CCC(F)(F)F)S(=O)(=O)CCC(F)(F)C(F)(F)F (stereo not drawn) [(93)]	≥ 90	≥ 70	100			
NC(=O)C(Cl)(CCC(F)(F)F)S(=O)(=O)CCC(F)(F)C(F)(F)F (stereo not drawn) [(94)]	≥ 90	≥ 70	100			
COC(=O)C(Cl)(CCC(F)(F)C(F)(F)C(F)(F)F)S(=O)(=O)CCC(F)(F)C(F)(F)F (stereo not drawn) [(96)]				≥ 90	≥ 70	100
NC(=O)C(Cl)(CCC(F)(F)C(F)(F)C(F)(F)F)S(=O)(=O)CCC(F)(F)C(F)(F)F (stereo not drawn) [(97)]				≥ 90	≥ 70	100
NC(=O)C(Cl)(CCCCC(F)(F)F)S(=O)(=O)CCC(F)(F)F (stereo not drawn) [(100)]	≥ 90	≥ 70	100			
COC(=O)C(Cl)(CCCC(F)(F)C(F)(F)F)S(=O)(=O)CCC(F)(F)F (stereo not drawn) [(102)]	≥ 90	≥ 70	100			
NC(=O)C(Cl)(CCCC(F)(F)C(F)(F)F)S(=O)(=O)CCC(F)(F)F (stereo not drawn) [(103)]	≥ 90	≥ 70	100			
